Experiment [1] addresses NACHT, LRR and PYD domains-containing protein 3 (Mus musculus, UniProt Q8R4B8). Description: (§1) Inhibition of nigericin-induced NLRP3 inflammasome activation in C57BL/6 mouse bone marrow derived macrophages assessed as reduction in LPS-stimulated IL-1beta secretion incubated for 1 hr followed by nigericin addition measured after 1 hr by ELISA.
Experiment [2] deals with T1, NACHT, LRR and PYD domains-containing protein 3 (Homo sapiens, UniProt Q96P20). The experiment in a line: Inhibition of nigericin-induced NLRP3 inflammasome activation in PMA-differentiated human THP1 cells assessed as reduction in LPS-stimulated IL-1beta secretion incubated for 1 hr prior to stimulation with nigericin for 1 hr by quanti-blue based SEAP reporter gene assay.
T1 sequence (Q96P20 whole entry, the tested form may be a part): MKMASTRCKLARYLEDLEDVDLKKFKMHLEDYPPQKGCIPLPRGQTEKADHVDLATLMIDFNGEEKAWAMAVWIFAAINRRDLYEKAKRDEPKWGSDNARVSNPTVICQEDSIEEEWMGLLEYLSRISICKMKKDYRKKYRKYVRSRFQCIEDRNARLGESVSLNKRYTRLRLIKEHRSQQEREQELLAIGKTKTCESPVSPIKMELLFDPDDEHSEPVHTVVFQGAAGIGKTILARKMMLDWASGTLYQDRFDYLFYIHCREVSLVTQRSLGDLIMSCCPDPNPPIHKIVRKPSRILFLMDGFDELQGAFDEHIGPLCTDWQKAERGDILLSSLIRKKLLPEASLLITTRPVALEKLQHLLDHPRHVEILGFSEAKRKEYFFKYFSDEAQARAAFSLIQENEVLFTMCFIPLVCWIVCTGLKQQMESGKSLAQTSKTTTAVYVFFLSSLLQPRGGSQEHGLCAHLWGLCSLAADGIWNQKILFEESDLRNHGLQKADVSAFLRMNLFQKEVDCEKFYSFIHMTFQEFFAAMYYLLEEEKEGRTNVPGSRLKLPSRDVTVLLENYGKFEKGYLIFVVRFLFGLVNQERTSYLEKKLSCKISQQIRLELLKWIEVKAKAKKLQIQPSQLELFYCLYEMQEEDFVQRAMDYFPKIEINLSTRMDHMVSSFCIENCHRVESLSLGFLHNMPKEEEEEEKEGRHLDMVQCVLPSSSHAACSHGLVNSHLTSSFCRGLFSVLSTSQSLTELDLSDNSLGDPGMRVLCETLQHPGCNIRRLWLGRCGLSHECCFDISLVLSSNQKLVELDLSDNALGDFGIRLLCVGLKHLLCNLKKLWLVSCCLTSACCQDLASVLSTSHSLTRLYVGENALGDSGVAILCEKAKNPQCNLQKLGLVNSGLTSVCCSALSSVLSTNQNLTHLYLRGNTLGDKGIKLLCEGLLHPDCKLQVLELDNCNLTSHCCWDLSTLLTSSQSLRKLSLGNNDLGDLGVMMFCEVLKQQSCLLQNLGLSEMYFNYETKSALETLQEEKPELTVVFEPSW

Experiment [3] addresses NACHT, LRR and PYD domains-containing protein 3 (Mus musculus) (UniProt Q8R4B8). The experiment in a line: Inhibition of nigericin-induced NLRP3-dependent pyroptosis in C57BL/6 mouse bone marrow derived macrophages assessed as restoration of LPS-stimulated decrease in intracellular ATP level incubated for 1 hr followed by nigericin addition measured after 1 hr by cell titer-glo reagent based luminescence assay.

In experiment [4] the target is T1, NACHT, LRR and PYD domains-containing protein 3. Description: Inhibition of nigericin-induced NLRP3 inflammasome activation in PMA-differentiated human THP1 cells assessed as reduction in LPS-stimulated IL-1beta secretion at 60 mM incubated for 1 hr prior to stimulation with nigericin for 1 hr by ELISA.
Experiment [5] has as its target NACHT, LRR and PYD domains-containing protein 3 (Mus musculus) (UniProt Q8R4B8). The experiment is described as §1.
Experiment [6] has as its target T1, NACHT, LRR and PYD domains-containing protein 3. Description: Inhibition of nigericin-induced NLRP3 inflammasome activation in PMA-differentiated human THP1 cells assessed as reduction in LPS-stimulated processing of pro-IL-1beta to mature IL-1beta in cell lysate at 3.4 mM incubated for 1 hr followed by nigericin addition measured after 1 hr by Western blot analysis.

Experiment [7] has the same target. Description: Inhibition of nigericin-induced NLRP3 inflammasome activation in PMA-differentiated human THP1 cells assessed as reduction in LPS-stimulated processing of pro-IL-1beta to mature IL-1beta in supernatant at 3.4 mM incubated for 1 hr followed by nigericin addition measured after 1 hr by Western blot analysis.
Experiment [8] concerns the target NACHT, LRR and PYD domains-containing protein 3 (Mus musculus) (UniProt Q8R4B8). Description: Inhibition of nigericin-induced NLRP3 inflammasome activation in C57BL/6 mouse bone marrow derived macrophages assessed as reduction in LPS-stimulated processing of pro-IL-1beta to mature IL-1beta in supernatant at 6.8 mM incubated for 1 hr followed by nigericin addition measured after 1 hr by Western blot analysis.

Experiment [9] shares this target. The experiment in a line: Inhibition of nigericin-induced NLRP3 inflammasome activation in C57BL/6 mouse bone marrow derived macrophages assessed as reduction in LPS-stimulated processing of pro-IL-1beta to mature IL-1beta in cell lysate at 6.8 mM incubated for 1 hr followed by nigericin addition measured after 1 hr by Western blot analysis.
For experiment [10] the target is unchanged. Description: Inhibition of nigericin-induced NLRP3 inflammasome activation in C57BL/6 mouse bone marrow derived macrophages assessed as reduction in LPS-stimulated processing of pro-IL-1beta to mature IL-1beta in cell lysate at 100 uM incubated for 1 hr followed by nigericin addition measured after 1 hr by Western blot analysis.
Experiment [11] shares this target. Description: Inhibition of nigericin-induced NLRP3 inflammasome activation in C57BL/6 mouse bone marrow derived macrophages assessed as reduction in LPS-stimulated processing of pro-IL-1beta to mature IL-1beta in supernatant at 100 uM incubated for 1 hr followed by nigericin addition measured after 1 hr by Western blot analysis.

The record followed here is ChEMBL document CHEMBL4118290, “Synthesis of 1,5-Anhydro-d-fructose derivatives and evaluation of their inflammasome inhibitors” (Bioorg Med Chem, 2018).

The source made the active and inactive calls. No cut-off for these calls is given here.

Chain of NACHT, LRR and PYD domains-containing protein 3 (Mus musculus, UniProt Q8R4B8) (Q8R4B8 whole entry, the tested form may be a part): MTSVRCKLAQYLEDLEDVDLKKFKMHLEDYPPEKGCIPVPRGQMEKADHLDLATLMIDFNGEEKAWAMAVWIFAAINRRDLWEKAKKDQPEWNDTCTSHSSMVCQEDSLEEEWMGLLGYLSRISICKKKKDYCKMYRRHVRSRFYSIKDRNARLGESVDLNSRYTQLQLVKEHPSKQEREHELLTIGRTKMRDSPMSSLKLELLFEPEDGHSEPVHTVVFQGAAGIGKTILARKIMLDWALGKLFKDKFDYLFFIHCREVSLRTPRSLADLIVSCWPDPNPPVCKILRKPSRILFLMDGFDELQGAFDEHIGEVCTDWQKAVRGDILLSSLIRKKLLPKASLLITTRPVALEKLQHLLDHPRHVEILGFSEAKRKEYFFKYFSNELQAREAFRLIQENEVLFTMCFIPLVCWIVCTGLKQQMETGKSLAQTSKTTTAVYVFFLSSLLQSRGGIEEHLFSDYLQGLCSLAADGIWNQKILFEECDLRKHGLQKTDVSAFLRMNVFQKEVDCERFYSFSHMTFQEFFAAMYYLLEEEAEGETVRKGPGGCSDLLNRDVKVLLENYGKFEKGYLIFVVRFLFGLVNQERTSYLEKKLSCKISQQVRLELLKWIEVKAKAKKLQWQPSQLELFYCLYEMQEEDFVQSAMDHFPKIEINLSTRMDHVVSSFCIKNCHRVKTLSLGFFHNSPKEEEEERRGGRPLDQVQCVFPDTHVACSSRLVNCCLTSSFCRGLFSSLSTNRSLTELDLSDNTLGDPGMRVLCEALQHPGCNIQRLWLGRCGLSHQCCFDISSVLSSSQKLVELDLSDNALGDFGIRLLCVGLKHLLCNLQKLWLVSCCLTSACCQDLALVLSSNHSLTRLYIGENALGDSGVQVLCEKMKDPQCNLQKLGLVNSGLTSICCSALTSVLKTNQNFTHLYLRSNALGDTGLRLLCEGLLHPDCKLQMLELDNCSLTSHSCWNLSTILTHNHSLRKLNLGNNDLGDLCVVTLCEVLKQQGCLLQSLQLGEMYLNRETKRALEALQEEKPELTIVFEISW
Chain of NACHT, LRR and PYD domains-containing protein 3 (Mus musculus) (Q8R4B8 whole entry, the tested form may be a part): as above

With `CCCCCCCC(=O)OC[C@@H]1C=CC(=O)CO1`, the IC50 amounted to 8.4 µM in experiment [1] and 5.1 µM in experiment [2]. The inhibition entry in [3] is “Dose-dependent effect”.
On to `O=C1C=C[C@H]2CO[C@@H]1O2`, for which the IC50 in experiment [1] was determined as 1.2 µM; in [2] it was 6.6 µM.
Turning to `CC(=O)OC[C@@H]1C=C(F)C(=O)CO1`, the IC50 in experiment [1] is 3.2 µM; in experiment [2] it was 3.7 µM. In addition, in [3], the inhibition result is “Dose-dependent effect”.
In the case of `O=C1C(F)=C[C@@H]2CO[C@H]1O2` (single isomer, unassigned), the IC50 in experiment [1] came out at 0.8 µM; in [2] it was 4.8 µM. Besides, in experiment [3], the inhibition result was “Dose-dependent effect”.
As to `CC(=O)OC[C@@H]1C=CC(=O)CO1`, the values for the IC50 in [1] and in [2] were 5.7 µM and 4.3 µM, respectively. Moreover, the inhibition result in experiment [3] is “Dose-dependent effect”.
Consider `CC(=O)OC1=C(F)C(OC(C)=O)[C@@H]2CO[C@H]1O2` (stereo partly specified), for which the values for the IC50 in experiment [1] and in experiment [2] were 1 µM and 3.7 µM, respectively. For the same compound, in experiment [3], the inhibition result is “Dose-dependent effect”.
`O=C1CO[C@H](CO)[C@@H](O)[C@@H]1O`: the inhibition entry in experiment [4] is “inactive”. Moreover, the inhibition entry in experiment [5] was “Dose-dependent effect”. Also, the IC50 in experiment [1] stood at 29000 µM.
In the case of `O=C1CO[C@H](CO)[C@@H](O)C1`, the inhibition entry in [6], in experiment [7], in [8] and in experiment [9] was “Active” throughout. In addition, the inhibition entry in experiment [5] and in [3] was “Dose-dependent effect” in each case. The IC50 in experiment [1] stood at 1600 µM; in experiment [2], 2300 µM.
With `O=C1C=C[C@@H](CO)OC1`, the inhibition entry in [10] and in experiment [11] was “Active” in each case. The inhibition result in [5] and in experiment [3] was “Dose-dependent effect” in each case. In addition, the IC50 in [1] came out at 16 µM.
Turning to `CCCC(=O)OC[C@@H]1C=CC(=O)CO1`, the IC50 in experiment [1] and in [2] was 3.6 µM in each case. In addition, the inhibition result in experiment [3] was “Dose-dependent effect”.
